Measured values from US20250186463A1, “ABIRATERONE DECANOATE PRODRUGS AND USE IN THERAPY” (PROPELLA THERAPEUTICS, INC., priority 2022, published 2025).

Tested on: serum progesterone
Assay: Phase 1/2a study: serum progesterone
Format: in vivo, human
Method: This is a Phase 1/2a, Open-label, Multicenter Study of Intramuscular Abiraterone Decanoate Depot in Patients with Advanced Prostate Cancer.
Formulations and dosing regimen: The formulation used in the study (abiraterone decanoate for intramuscular [i.m.] injection) is a solution formulation of abiraterone decanoate at a concentration of 180 mg/mL and will be provided as a 10 mL vial containing 990 mg of abiraterone decanoate in 5.5 mL of solution. See further details of the formulations in Example 2 (for each milliliter: Abiraterone Decanoate, about 180 mg/mL; Benzyl Alcohol, about 100 mg/mL; Benzyl Benzoate, about 200 mg/mL; and Corn oil, q.s. to 1 mL). Abiraterone Decanoate will be administered as an i.m. injection every 84 days (±3 days). Dose escalation will proceed with a modified Fibonacci sequence. Based on emerging data, intermediate doses may be evaluated.
Study Design: This is a Phase 1/2a, Open-label, Multicenter Study of Intramuscular Abiraterone Decanoate Depot in Patients with Advanced Prostate Cancer. In Phase 1, all patients will receive i.m. Abiraterone Decanoate depot in 84-day treatment cycles combined with daily oral prednisone or dexamethasone. In Phase 2a, patients will be randomized 1:1 and treated with i.m. Abiraterone Decanoate depot in 84-day treatment cycles in combination with dexamethasone (Arm A) or abiraterone acetate daily+prednisone (Arm B). In both Phases, patients will undergo scheduled periodic assessments of serum testosterone levels. Participants may continue treatment until they meet any discontinuation criteria outlined in the protocol.
Pharmacodynamic Analysis: Determination of Prostate Specific Antigen (PSA), serum testosterone, dehydroepiandrosterone (DHEA), dehydroepiandrosterone sulfate (DHEA-S), androstenedione, dihydrotestosterone (DHT), progesterone, cortisol, adrenocorticotropic hormone (ACTH), corticosterone, 11-dexoycorticosterone (11-DOC) and 11-deoxycortisol.
Based on the available data, the recommended dose for Phase 2 is about 1260 mg abiraterone decanoate once every three months (12 weeks). All cohorts 1 and 2 in this clinical study were treated with prednisone, 5 mg orally once or twice daily; and all cohorts 3-5 were treated with dexamethasone, 0.5 mg orally once daily. The results shown herein for these cohorts should be understood accordingly.
See also Table 3B below. […] See also FIG. 11B for the absolute serum progesterone levels for cohorts 4 and 5, with the LLOQ being 1.59 nM. It should be noted that the maximum serum progesterone level observed for cohorts 1-3 is 2.5 nM. FIGS. 3F and 3G show the serum 11-deoxycorticosterone and corticosterone response in cohorts 3, 4, and 5, the trend is similar to that observed for progesterone levels above. See a summary shown in the Table 3C below for the first cycle.

Structure (SMILES): CCCCCCCCCC(=O)O[C@H]1CC[C@@]2(C)C(=CC[C@@H]3[C@@H]2CC[C@]2(C)C(c4cccnc4)=CC[C@@H]32)C1 [abiraterone decanoate]
- Progesterone Changes during cycle 1, Percent (%) (720 mg (N = 4), Day 14): −1%
- Progesterone Changes during cycle 1, Percent (%) (720 mg (N = 4), Day 28): −2%
- Progesterone Changes during cycle 1, Percent (%) (720 mg (N = 4), Day 56): 0%
- Progesterone Changes during cycle 1, Percent (%) (720 mg (N = 4), Day 84): 0%
- Progesterone Changes during cycle 1, Percent (%) (1,260 mg (N = 6), Day 14): 20%
- Progesterone Changes during cycle 1, Percent (%) (1,260 mg (N = 6), Day 28): 35%
- Progesterone Changes during cycle 1, Percent (%) (1,260 mg (N = 6), Day 56): 0%
- Progesterone Changes during cycle 1, Percent (%) (1,260 mg (N = 6), Day 84): 0%
- Progesterone Changes during cycle 1, Percent (%) (1,800 mg (N = 8), Day 14): 165%
- Progesterone Changes during cycle 1, Percent (%) (1,800 mg (N = 8), Day 28): 86%
- Progesterone Changes during cycle 1, Percent (%) (1,800 mg (N = 8), Day 56): 12%
- Progesterone Changes during cycle 1, Percent (%) (1,800 mg (N = 8), Day 84): 13%
- Serum Progesterone (% CFB) (Cohort 1, 180 mg i.m., Study Day 1 (baseline)): 0%
- Serum Progesterone (% CFB) (Cohort 1, 180 mg i.m., Study Day 14): 0%
- Serum Progesterone (% CFB) (Cohort 1, 180 mg i.m., Study Day 28): 8%
- Serum Progesterone (% CFB) (Cohort 1, 180 mg i.m., Study Day 56): 0%
- Serum Progesterone (% CFB) (Cohort 1, 180 mg i.m., Study Day 70): 0%
- Serum Progesterone (% CFB) (Cohort 2, 360 mg i.m., Study Day 1 (baseline)): 0%
- Serum Progesterone (% CFB) (Cohort 2, 360 mg i.m., Study Day 14): 37%
- Serum Progesterone (% CFB) (Cohort 2, 360 mg i.m., Study Day 28): 8%
- Serum Progesterone (% CFB) (Cohort 2, 360 mg i.m., Study Day 56): 0%
- Serum Progesterone (% CFB) (Cohort 2, 360 mg i.m., Study Day 84): 0%
- Serum Progesterone (% CFB) (Cohort 2, 360 mg i.m., Study Day 168): 0%
- Serum Progesterone (% CFB) (Cohort 2, 360 mg i.m., Study Day 252): 0%
- Serum Progesterone (% CFB) (Cohort 3, 720 mg i.m., Study Day 1 (baseline)): 0%
- Serum Progesterone (% CFB) (Cohort 3, 720 mg i.m., Study Day 14): −1%
- Serum Progesterone (% CFB) (Cohort 3, 720 mg i.m., Study Day 28): −2%
- Serum Progesterone (% CFB) (Cohort 3, 720 mg i.m., Study Day 56): 0%
- Serum Progesterone (% CFB) (Cohort 3, 720 mg i.m., Study Day 84): 0%
- Serum Progesterone (% CFB) (Cohort 3, 720 mg i.m., Study Day 168): 6%
- Serum Progesterone (% CFB) (Cohort 3, 720 mg i.m., Study Day 224): 0%
- Serum Progesterone (% CFB) (Cohort 3, 720 mg i.m., Study Day 252): 0%
- Serum Progesterone (% CFB) (Cohort 4, 1260 mg i.m., Study Day 1 (baseline)): 0%
- Serum Progesterone (% CFB) (Cohort 4, 1260 mg i.m., Study Day 14): 20%
- Serum Progesterone (% CFB) (Cohort 4, 1260 mg i.m., Study Day 28): 35%
- Serum Progesterone (% CFB) (Cohort 4, 1260 mg i.m., Study Day 42): 0%
- Serum Progesterone (% CFB) (Cohort 4, 1260 mg i.m., Study Day 56): 0%
- Serum Progesterone (% CFB) (Cohort 4, 1260 mg i.m., Study Day 70): 22%
- Serum Progesterone (% CFB) (Cohort 4, 1260 mg i.m., Study Day 84): 0%
- Serum Progesterone (% CFB) (Cohort 4, 1260 mg i.m., Study Day 112): 6%
- Serum Progesterone (% CFB) (Cohort 4, 1260 mg i.m., Study Day 140): 0%
- Serum Progesterone (% CFB) (Cohort 4, 1260 mg i.m., Study Day 168): 1%
- Serum Progesterone (% CFB) (Cohort 4, 1260 mg i.m., Study Day 224): 0%
